Experimental findings from patent US7687055B2, “Method of treating keratinic fibers with creatine, creatinine and/or their salts to strengthen, restructure, harden and stabilize them” (Wella AG, priority 2001, dated 2010) are described below.

Test [1] is described as follows: Measurement of the repair effect: tensile elongation measurement, strand tensile strength of hair. The conditions noted are these: 1 wt. % creatine in shampoo of Example 2 vs same shampoo without creatine (14.8 to 15.5 cN/tex); t-test significance level 99.9%. How it is done:
Measurement of the Repair Effect
To determine the breaking force for hair, which is an indicator of the structural integrity of the hair cortex and is thus a measure of the degree of damage, common tensile elongation measurements were performed. From each hair strand, 20 individual hairs were selected and the individual hair diameters were measured with a computer-controlled laser micrometer. The force required to break the individual hairs was then determined with a tensile elongation tester (MTT 160/160 Series Miniature Tensile Tester, serial No. 600.95.05.001, DIA-STRON Ltd, England).
From these individual test results, which because of the differing hair diameters are different, the strand tensile strength (STS) was determined by calculating from the individual values the tensile strength for a hair diameter of 0.08 mm (mean diameter) taking into account the hair diameters. By taking into account the hair density, a conversion to the unit for strand tensile strength (cN/tex) was finally made. The higher the numerical value of the strand tensile strength, the lower is the hair damage.

A short description of test [2]: Measurement of the improvement in combability: combing force on hair strands. The conditions noted are these: 1 wt. % creatine in shampoo of Example 2 vs same shampoo without creatine (1.43 N to 1.21 N); t-test significance level 97.5%. An excerpt: Measurement of the Improvement in Combability The combability of hair is also an important parameter for describing hair quality. Various external influences such as certain cosmetic treatments (bleaching, dyeing permanent waving), weathering and frequent combing and brushing cause a deterioration in hair combability which is attributable to damage to the cuticula. The principle of most methods for measuring combability consists of measuring the force (combing force) required to move a comb through a hair strand under exactly defined boundary conditions. Within the framework of our own study, an automated apparatus was used for this purpose. […] The strands were then repeatedly and automatically combed one after another at a constant rate of speed, and for each combing the combing force N (newton) was recorded as a function of the combing path (strand length). The reported combing force values were finally obtained by averaging the combing forces over the combing path. The lower the combing force, the better is the combability of the hair.

As for `CN(CC(=O)O)C(=N)N` [creatine, M-amidinosarcosine], the “increase of strand tensile strength” value in test [1] came to 4.7%. Moreover, the “reduction of combing force (wet combability)” value in test [2] stood at 15.3%.
